Assay results as given in patent publication US9856511B2, “Protease deubiquitinating inhibitor screening” (priority 2011, dated 2018).

Legend:
Assay type in all cases: in vivo
C1498 AML cells = assay: C1498 AML model in C57BL/6J mice, histopathology of liver and ovary; settings: 5 mg/kg i.p. for 7 days
Protocol: (§1) Animal experiments were conducted in full accordance with Swedish governmental statutory regulations on animal welfare under permission from local ethical committees. Animals were housed at a max of five per cage and provided with sterile water and food ad libitum. All mice were monitored and weighed daily. For the head and neck carcinoma model a 100-μl cell suspension containing 1×10^6 FaDu cells was injected subcutaneously into the right rear flank of the animals. After injection, tumor growth was measured daily with calipers and the tumor volume calculated by the formula […]. When tumors had grown to a size of approximately 200 mm^3 (Day 0) mice were randomized to receive either vehicle (n=10) or b-AP15 5 mg/kg^−1 by subcutaneous injection s.c. (n=15) daily. […] Nineteen days after malignant cell injection all of the mice were killed and histopathological manifestations of liver, ovary (target organs for this model of tumor) were evaluated and compared between groups. […]
(§2) SCID mice bearing FaDu human tumor xenografts were randomized at tumor take (200 mm^3) and treated by daily subcutaneous injection with either vehicle (n=10) or 5 mg kg^−1 b-AP15 (n=15) for 10 days. […] Mice were treated with vehicle (n=6) or 5 mg kg^−1 b-AP15 (n=6) 4-5 times weekly for 3 weeks and monitored for tumor onset (log-rank, P=0.0136, hazard ratio=7.9). […]

[1] = tested on: HCT-116 Bcl-2+ colon carcinoma; assay: Disease free survival of nude mice challenged with HCT-116 Bcl-2+ cells; settings: 5 mg/kg 4-5 times weekly for 3 weeks; log-rank P=0.0136
Protocol: as §1, §2

[2] = Animal weight and side effects in treated tumor-bearing mice
Protocol: In order to investigate the effect of b-AP15 on tumor growth in vivo, the compound was administered to mice bearing either a human tumor or mouse xenografts. FaDu head and neck carcinoma were chosen as a SCID mouse xenograft both as a model for a p53mut tumor and since this model is suitable for studies using circulating cell death biomarkers (30). Significant inhibition of FaDu tumor growth was observed following daily treatment with b-AP15 (treated/control tumor volume, T/C=0.4, p=<0.001). Similarly b-AP15 (day on/2 day off schedule) inhibited tumor growth in C57BL/6J mice bearing lung carcinomas (T/C=0.16, p=<0.01). […] To examine whether b-AP15 promotes tumor cell death in vivo, plasma levels of cytokeratin-18 (CK18) were analyzed. […] To investigate the ability of b-AP15 to inhibit proteasome deubiquitination in vivo, accumulation of poly-ubiquitin conjugates was analyzed by means of antibodies specific for K48 linked polyubiquitin chains. Histological analysis of treated tumors confirmed the accumulation of poly-ubiquitin conjugates.
Animal experiments were conducted in full accordance with Swedish governmental statutory regulations on animal welfare under permission from local ethical committees. Animals were housed at a max of five per cage and provided with sterile water and food ad libitum. All mice were monitored and weighed daily. For the head and neck carcinoma model a 100-μl cell suspension containing 1×10^6 FaDu cells was injected subcutaneously into the right rear flank of the animals. After injection, tumor growth was measured daily with calipers and the tumor volume calculated by the formula […]. When tumors had grown to a size of approximately 200 mm^3 (Day 0) mice were randomized to receive either vehicle (n=10) or b-AP15 5 mg/kg^−1 by subcutaneous injection s.c. (n=15) daily. For the colon carcinoma model, 2.5×10^6 HCT-116 colon carcinoma cells stably transfected with Bcl-2 (HCT-116^Bcl-2+) were inoculated subcutaneously into the right flank of nude mice. One day after inoculation mice were treated with 5 mg/kg^−1 by intra peritoneal injection (i.p.). Animals were inspected daily to establish the tumor onset and growth. For the lung carcinoma model a 100-μl cell suspension containing 2×10^5 Lewis Lung Carcinoma (LLC) cells was injected subcutaneously into the right rear flank of C57/B6 mice. When tumors had grown to a size of approximately 50 mm^3 (Day 0) mice were randomized to receive either vehicle (n=4) or b-AP15 5 mg/kg^−1 i.p. (n=4) with a treatment cycle consisting of two days treatment followed by two days no treatment (2 days on/2 days off) for two weeks. For the breast carcinoma model a 100-μl cell suspension containing 1×10^5 […] was injected subcutaneously into the right mammary fat pad of BALB/c mice. When tumors had grown to a size approximately 25 mm^3 (Day 0), mice were randomized to receive either vehicle (n=5) or b-AP15 2.5 mg/kg^−1 i.p. (n=5) with a treatment cycle consisting of one days treatment followed by three days no treatment (1 day on/3 days off) for 3 weeks. In the AML studies female C57BL/6J mice were injected i.v. in the tail vein with 5×10^5 C1498 AML cells. After eight days mice were randomized to receive either b-AP15 5 mg/kg^−1 (n=10) or vehicle (n=10) i.p. for 7 days (day +8 till +14). Nineteen days after malignant cell injection all of the mice were killed and histopathological manifestations of liver, ovary (target organs for this model of tumor) were evaluated and compared between groups. […]

Question: What does the source list for C=CC(=O)N1C/C(=C\c2ccc([N+](=O)[O-])cc2)C(=O)/C(=C/c2ccc([N+](=O)[O-])cc2)C1 [b-AP15]?
Answer: AML infiltration in liver and ovary (C1498 AML cells): few infiltrated blasts and normal morphology; disease free survival (tumor onset), hazard ratio [1]: 7.9; difference in weight at start and endpoint between control and treated animals ([2]; 4T1): +5.8%; difference in weight at start and endpoint between control and treated animals ([2]; FaDu xenograft): −1.3%; difference in weight at start and endpoint between control and treated animals ([2]; LLC): +2.1%; adverse side effects ([2]; b-AP15 treated group): No adverse side effects were observed; average weight loss at the conclusion of the study ([2]; b-AP15 treated group): < 5%
